Results: patent publication US6677368B2, “4-aryl substituted indolinones” (Sugen, Inc., priority 2000, dated 2004)
pIC50: −log10 of the molar value.

How the values were obtained:
FGFR3 = FGFR3 (Homo sapiens, UniProt P22607); test: FGFR3 kinase inhibition; assay type: biochemical
FLK-1 = biological target: T1, FLK-1 (Mus musculus, UniProt P35918); test: GST-FLK-1 bioassay (tyrosine kinase activity on poly(glu-tyr)); assay type: biochemical; conditions: GST-Flk1, poly(glu-tyr) substrate, 0.5 μM ATP
T1 construct: GST-Flklcd purified from sf9 recombinant baculovirus transfomnation (SUGEN, Inc.); host or cells: Sf9 insect cells, recombinant baculovirus
T1 sequence (P35918 784-1345 limits assumed): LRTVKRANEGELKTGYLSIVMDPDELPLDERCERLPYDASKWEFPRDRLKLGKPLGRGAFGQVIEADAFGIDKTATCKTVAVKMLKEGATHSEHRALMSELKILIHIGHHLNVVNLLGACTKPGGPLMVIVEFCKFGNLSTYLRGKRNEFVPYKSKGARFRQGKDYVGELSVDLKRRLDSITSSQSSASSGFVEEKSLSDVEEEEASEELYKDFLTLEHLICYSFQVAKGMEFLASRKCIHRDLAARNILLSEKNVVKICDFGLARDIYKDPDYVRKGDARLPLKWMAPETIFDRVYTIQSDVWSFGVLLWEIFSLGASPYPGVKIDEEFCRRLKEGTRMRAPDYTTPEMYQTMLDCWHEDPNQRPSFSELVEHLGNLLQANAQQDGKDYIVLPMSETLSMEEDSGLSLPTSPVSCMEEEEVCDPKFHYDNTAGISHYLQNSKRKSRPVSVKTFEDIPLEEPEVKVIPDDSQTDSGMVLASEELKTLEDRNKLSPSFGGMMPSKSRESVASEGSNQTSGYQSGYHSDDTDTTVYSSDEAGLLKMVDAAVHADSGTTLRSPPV
Experimental: This assay analyzes the tyrosine kinase activity of GST-Flk1 on poly(glu-tyr) peptides.
1. Corning 96-well ELISA plates (Corning Catalog No. 25805-96).
2. poly(glu-tyr) 4:1, lyophilizate (Sigma Catalog No. P0275), 1 mg/ml in sterile PBS.
3. PBS Buffer: for 1 L, mix 0.2 g KH2PO4, 1.15 g Na2HPO4, 0.2 g KCl and 8 g NaCl in approx. 900 ml dH2O. When all reagents have dissolved, adjust the pH to 7.2 with HCl. Bring total volume to 1 L with dH2O.
4. PBST Buffer: to 1 L of PBS Buffer, add 1.0 ml Tween-20.
5. TBB—Blocking Buffer: for 1 L, mix 1.21 g TRIS, 8.77 g NaCl, 1 ml TWEEN-20 in approximately 900 ml dH2O. Adjust pH to 7.2 with HCl. Add 10 g BSA, stir to dissolve. Bring total volume to 1 L with dH2O. Filter to remove particulate matter.
6. 1% BSA in PBS: add 10 g BSA to approx. 990 ml PBS buffer, stir to dissolve. Adjust total volume to 1 L with PBS buffer, filter to remove particulate matter.
8. GST-Flklcd purified from sf9 recombinant baculovirus transfomnation (SUGEN, Inc.).
12. Kinase Dilution Buffer (KDB): mix 10 ml Hepes (pH 7.5), 1 ml 5M NaCl, 40 μL 100 mM sodium orthovanadate and 0.4 ml of 5% BSA in dH2O with 88.56 ml dH2O.
13. NUNC 96-well V bottom polypropylene plates, Applied Scientific Catalog #AS-72092
14. EDTA: mix 14.12 g ethylenediaminetetraacetic acid (EDTA) with approx. 70 ml dH2O. Add 10 N NaOH until EDTA dissolves. Adjust pH to 8.0. Adjust total volume to 100 ml with dH2O.
15. 1° and 2° Antibody Dilution Buffer: mix 10 ml of 5% BSA in PBS buffer with 89.5 ml TBST.
16. Anti-phosphotyrosine rabbit polyclonal antisera (SUGEN, Inc.)
17. Goat anti-rabbit HRP conjugate.
18. ABST solution: To approx. 900 ml dH2O add 19.21 g citric acid and 35.49 g Na2HPO4. Adjust pH to 4.0 with phosphoric acid. Add 2,2′-Azinobis(3-ethyl-benzthiazoline-6-sulfonic acid (ABTS, Sigma, Cat. No. A-1888, hold for approx. ½ hour, filter.
19. 30% Hydrogen Peroxide.
20. ABST/H2O2: add 3 μl of H2O2 to 15 ml of ABST solution.
1. Coat Corning 96-well ELISA plates with 2 μg of polyEY in 100 μl PBS/well, hold at room temperature for 2 hours or at […] overnight. Cover plates to prevent evaporation.
2. Remove unbound liquid from wells by inverting plate. Wash once with TBST. Pat the plate on a paper towel to remove excess liquid.
3. Add 100 μl of 1% BSA in PBS to each well. Incubate, with shaking, for 1 hr. at room temperature.
5. Soak wells with 50 mM HEPES (pH7.5, 150 μl/well).
6. Dilute test compound with dH2O/4% DMSO to 4 times the desired final assay concentration in 96-well polypropylene plates.
7. Add 25 μl diluted test compound to each well of ELISA plate. In control wells, place 25 μl of dH2O/4% DMSO.
8. Dilute GST-Flk1 0.005 μg (5 ng)/well in KDB.
9. Add 50 μl of diluted enzyme to each well.
10. Add 25 μl 0.5 M EDTA to negative control wells.
11. Add 25 μl of 40 mM MnCl2 with 4×ATP (2 μM) to all wells (100 μl final volume, 0.5 μM ATP final concentration in each well).
12. Incubate, with shaking, for 15 minutes at room temperature.
13. Stop reaction by adding 25 μl of 500 mM EDTA to each well.
14. Wash 3× with TBST and pat plate on paper towel to remove excess liquid.
15. Add 100 μl per well anti-phosphotyrosine antisera, 1:10,000 dilution in antibody dilution buffer. Incubate, with shaking, for 90 min. at room temperature.
17. Add 100 μl/well of goat anti-rabbit HRP conjugate (1:6,000 in antibody dilution buffer). Incubate, with shaking, for 90 minutes are room temperature.
19. Add 100 μl room temperature ABST/H2O2 solution to each well.
20. Incubate, with shaking for 15 to 30 minutes at room temperature.
21. If necessary, stop reaction by adding 100 μl of 0.2 M HCl to each well.
22. Read results on Dynatech MR7000 ELISA reader with test filter at 410 nM and reference filter at 630 nM.

Sequence of FGFR3 (P22607 23-806, species assumed): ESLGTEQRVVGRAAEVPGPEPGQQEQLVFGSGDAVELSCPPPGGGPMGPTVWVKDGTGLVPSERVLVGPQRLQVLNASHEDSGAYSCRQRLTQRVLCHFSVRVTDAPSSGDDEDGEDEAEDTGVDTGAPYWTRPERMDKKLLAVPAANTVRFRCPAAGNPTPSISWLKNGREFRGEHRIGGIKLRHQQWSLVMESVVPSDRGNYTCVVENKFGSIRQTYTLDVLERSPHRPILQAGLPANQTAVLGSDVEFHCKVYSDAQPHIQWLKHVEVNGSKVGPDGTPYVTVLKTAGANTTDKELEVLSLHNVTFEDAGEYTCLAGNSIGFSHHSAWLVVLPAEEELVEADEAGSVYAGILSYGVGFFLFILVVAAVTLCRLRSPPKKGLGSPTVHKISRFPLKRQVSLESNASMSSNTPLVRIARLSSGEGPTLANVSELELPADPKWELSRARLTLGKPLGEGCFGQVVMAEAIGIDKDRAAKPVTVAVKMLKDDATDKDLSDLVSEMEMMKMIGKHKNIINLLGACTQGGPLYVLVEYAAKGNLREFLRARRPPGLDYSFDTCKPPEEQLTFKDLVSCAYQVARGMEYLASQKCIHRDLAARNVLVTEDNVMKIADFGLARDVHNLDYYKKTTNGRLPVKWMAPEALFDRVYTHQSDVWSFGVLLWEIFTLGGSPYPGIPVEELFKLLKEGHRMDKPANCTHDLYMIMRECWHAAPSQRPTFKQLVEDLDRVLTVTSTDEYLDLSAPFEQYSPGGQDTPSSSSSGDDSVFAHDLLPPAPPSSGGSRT

Row | SMILES | pIC50 (FGFR3) | pIC50 (FLK-1)
1 | COc1ccc(-c2cccc3c2/C(=C/c2[nH]c(C)c(C(=O)N4C[C@@H](C)N[C@@H](C)C4)c2C)C(=O)N3)cc1 [Example 40, 3-[4-((cis)-3,5-Dimethyl-piperazine-1-carbonyl)-3,5-dimethyl-1H-pyrrol-2-ylmethylene]-4-(4-methoxy-phenyl)-1,3-dihydro-indol-2-one] | 6.42 | 7.39
2 | COc1cccc(-c2cccc3c2/C(=C/c2[nH]c(C)c(C(=O)NCCN(C(C)C)C(C)C)c2C)C(=O)N3)c1 [Example 52, 5-[4-(3-Methoxy-phenyl)-2-oxo-1,2-dihydro-indol-3-ylidenemethyl]-2,4-dimethyl-1H-pyrrole-3-carboxylic Acid (2-Diisopropylamino-ethyl)-amide] | > 8.04 | 8.30
3 | Cc1[nH]c(/C=C2\C(=O)Nc3cccc(-c4ccc(Br)cc4)c32)c(C)c1C(=O)N1CCN(C)CC1 [Example 53] | 6.17 | 7.68
4 | Cc1[nH]c(/C=C2\C(=O)Nc3cccc(-c4ccc(Br)cc4)c32)c(C)c1C(=O)N1C[C@@H](C)N[C@@H](C)C1 [Example 57, 4-(4-Bromo-phenyl)-3-[4-[(cis)-3,5-dimethyl-piperazine-1-carbonyl)-3,5-dimethyl-1H-pyrrol-2-ylmethylene]-1,3-dihydro-indol-2-one] | 7.06 | 7.54
5 | Cc1[nH]c(/C=C2\C(=O)Nc3cccc(-c4ccc(Br)cc4)c32)c(C)c1C(=O)NCCN(C(C)C)C(C)C [Example 60, 5-[4-(4-Bromo-phenyl)-2-oxo-1,2-dihydro-indol-3-ylidenemethyl]-2,4-dimethyl-1H-pyrrole-3-carboxylic Acid (2-Diisopropylamino-ethyl)-amide] | 6.26 | 7.74
6 | CCN(CC)CCNC(=O)c1c(C)[nH]c(/C=C2\C(=O)Nc3cccc(-c4cccc(Br)c4)c32)c1C [Example 63, 5-[4-(3-Bromo-phenyl)-2-oxo-1,2-dihydro-indol-3-ylidenemethyl]-2,4-dimethyl-1H-pyrrole-3-carboxylic Acid (2-Diethylamino-ethyl)-amide] | 7.03 | 7.37

Now from value to compound:

Row | pIC50 (FGFR3) | pIC50 (FLK-1) | SMILES
7 | 5.70 | 7.04 | Cc1cc(C(=O)N2C[C@@H](C)N[C@@H](C)C2)c(/C=C2\C(=O)Nc3cccc(-c4cccc(Cl)c4)c32)[nH]1 [Example 35, 4-(3-Chloro-phenyl)-3-[3-((cis)-3,5-dimethyl-piperazine-1-carbonyl)-5-methyl-1H-pyrrol-2-ylmethylene]-1,3-dihydro-indol-2-one]
8 | 7.34 | 7.54 | COc1ccc(-c2cccc3c2/C(=C/c2[nH]c(C)c(C(=O)NCCN4CCCC4)c2C)C(=O)N3)cc1 [Example 38, 5-[4-(4-Methoxy-phenyl)-2-oxo-1,2-dihydro-indol-3-ylidenemethyl]-2,4-dimethyl-1H-pyrrole-3-carboxylic Acid (2-Pyrrolidin-1-yl-ethyl)-amide]
9 | 6.10 | 7.10 | COc1ccc(-c2cccc3c2/C(=C/c2[nH]c(C)cc2C(=O)NCCN2CCCC2)C(=O)N3)cc1 [Example 41, 2-[4-(4-Methoxy-phenyl)-2-oxo-1,2-dihydro-indol-3-ylidenemethyl]-5-methyl-1H-pyrrole-3-carboxylic Acid (2-Pyrrolidin-1-yl-ethyl)-amide]
10 | 8.05 | 8.05 | CCN(CC)CCNC(=O)c1c(C)[nH]c(/C=C2\C(=O)Nc3cccc(-c4cccc(OC)c4)c32)c1C [Example 46, 5-[4-(3-Methoxy-phenyl)-2-oxo-1,2-dihydro-indol-3-ylidenemethyl]-2,4-dimethyl-1H-pyrrole-3-carboxylic Acid (2-Diethylamino-ethyl)-amide]
11 | 6.72 | 7.92 | COc1cccc(-c2cccc3c2/C(=C/c2[nH]c(C)c(C(=O)NCCn4ccnn4)c2C)C(=O)N3)c1 [Example 48, 5-[4-(3-Methoxy-phenyl)-2-oxo-1,2-dihydro-indol-3-ylidenemethyl]-2,4-dimethyl-1H-pyrrole-3-carboxylic Acid (2-[1,2,3]Triazol-1-yl-ethyl)-amide]
12 | 6.66 | 7.27 | Cc1cc(C(=O)NCCN2CCCC2)c(/C=C2\C(=O)Nc3cccc(-c4ccc(Br)cc4)c32)[nH]1 [Example 58, 2-[4-(4-Bromo-phenyl)-2-oxo-1,2-dihydro-indol-3-ylidenemethyl]-5-methyl-1H-pyrrole-3-carboxylic Acid (2-Pyrrolidin-1-yl-ethyl)-amide]
13 | > 8.04 | 8.22 | CCN(CC)CCNC(=O)c1c[nH]c(/C=C2\C(=O)Nc3cccc(-c4ccc(Br)cc4)c32)c1C [Example 61, 5-[4-(4-Bromo-phenyl)-2-oxo-1,2-dihydro-indol-3-ylidenemethyl]-4-methyl-1H-pyrrole-3-carboxylic Acid (2-Diethylamino-ethyl)-amide]
